Reference: ChEMBL document CHEMBL1156829 (Proc Natl Acad Sci U S A, 2008)

What was measured:
Plasmodium falciparum [1] = assay: NOVARTIS: Inhibition of Plasmodium falciparum 3D7 (drug-susceptible) proliferation in erythrocyte-based infection assay; format: functional, organism-based; conditions: Plasmodium falciparum, 3D7
[2] = NOVARTIS: Cytotoxicity against human hepatocellular carcinoma cell line (Huh7); format: toxicity, cell-based, Huh-7; conditions: Huh7 cells (hepatocellular carcinoma cell line)
Plasmodium falciparum [3] = assay: NOVARTIS: Inhibition of Plasmodium falciparum W2 (drug-resistant) proliferation in erythrocyte-based infection assay; format: functional, organism-based; conditions: Plasmodium falciparum, W2; read-out: EC50

SMILES: Cc1ccc(C)c(N2C(=O)CC(Cc3ccc(Cl)cc3)C2=O)c1 (stereo not given)
- EC50 (Plasmodium falciparum [1]): > 1250 nM
- CC50 [2]: > 10000 nM
- EC50 (Plasmodium falciparum [3]): 1230 nM

SMILES: Cc1ccc(-c2c[n+](-c3ccccc3)c3n2CCCS3)cc1
- EC50 (Plasmodium falciparum [1]): 735 nM
- CC50 [2]: > 100000 nM
- EC50 (Plasmodium falciparum [3]): 1640 nM

SMILES: CC1(C)O[C@@H]2OC([C@@H](O)CNc3ccc([N+](=O)[O-])cc3[N+](=O)[O-])C(O)[C@@H]2O1 (stereo not given in full)
- EC50 (Plasmodium falciparum [1]): 299 nM
- CC50 [2]: 12000 nM
- EC50 (Plasmodium falciparum [3]): 366 nM

SMILES: COc1ccc(C2c3cccn3-c3ccccc3N2C(=O)CN(C(=O)Nc2ccc(C(F)(F)F)cc2)C2CC2)cc1 (stereo not given)
- EC50 (Plasmodium falciparum [1]): 7510 nM
- CC50 [2]: > 100000 nM
- EC50 (Plasmodium falciparum [3]): 6200 nM

SMILES: Fc1cc(F)c(C2SCCN2C(=S)Nc2cccc(C(F)(F)F)c2)c(F)c1 (stereo not given)
- EC50 (Plasmodium falciparum [1]): 273 nM
- CC50 [2]: > 100000 nM
- EC50 (Plasmodium falciparum [3]): 187 nM

SMILES: O=C(NNc1nc2ccccc2nc1Cl)Nc1ccc(Cl)cc1
- EC50 (Plasmodium falciparum [1]): 218 nM
- CC50 [2]: 7760 nM
- EC50 (Plasmodium falciparum [3]): 306 nM

SMILES: CCOc1ccc(-c2cn3c([n+]2Cc2ccccc2)SCCC3)cc1
- EC50 (Plasmodium falciparum [1]): 648 nM
- CC50 [2]: > 10000 nM
- EC50 (Plasmodium falciparum [3]): 1090 nM

SMILES: CC[n+]1c(/C=C/c2cc(Br)ccc2OC)ccc2ccccc21
- EC50 (Plasmodium falciparum [1]): 155 nM
- CC50 [2]: > 10000 nM
- EC50 (Plasmodium falciparum [3]): 202 nM

SMILES: COc1ccccc1N1C(=N)S/C(=C/c2ccc(N(C)C)cc2)C1=O
- EC50 (Plasmodium falciparum [1]): 119 nM
- CC50 [2]: > 10000 nM
- EC50 (Plasmodium falciparum [3]): 136 nM

SMILES: COc1cc(NC(C)CCCN(Cc2ccc(Cl)cc2)C(=O)Nc2ccccc2F)c2ncccc2c1 (stereo not given)
- EC50 (Plasmodium falciparum [1]): > 1090 nM
- CC50 [2]: > 8250 nM
- EC50 (Plasmodium falciparum [3]): < 0.572 nM

SMILES: N#C/C(=C\c1ccc(Sc2ccccc2)o1)c1nc2ccccc2[nH]1
- EC50 (Plasmodium falciparum [1]): 1510 nM
- CC50 [2]: > 10000 nM
- EC50 (Plasmodium falciparum [3]): 947 nM

SMILES: c1ccc(-c2ccnc3c2ccc2c(-c4ccccc4)ccnc23)cc1
- EC50 (Plasmodium falciparum [1]): 329 nM
- CC50 [2]: > 100000 nM
- EC50 (Plasmodium falciparum [3]): 430 nM

SMILES: Cc1ccc(N2C(=O)c3sc4nnc(C)c(=O)n4c3C2=O)cc1
- EC50 (Plasmodium falciparum [1]): > 595 nM
- CC50 [2]: > 10000 nM
- EC50 (Plasmodium falciparum [3]): 315 nM

SMILES: O=C1C(=Nc2cccc(C(F)(F)F)c2)c2ccccc2N1CN1CCc2ccccc2C1
- EC50 (Plasmodium falciparum [1]): 8380 nM
- CC50 [2]: > 100000 nM
- EC50 (Plasmodium falciparum [3]): 3710 nM

SMILES: CCN(CC)CCCNc1ccnc2cc3ccccc3cc12
- EC50 (Plasmodium falciparum [1]): 33.8 nM
- CC50 [2]: 26200 nM
- EC50 (Plasmodium falciparum [3]): 51.8 nM

SMILES: Cc1ccc(S(=O)(=O)N=C2C=C(Sc3nnc[nH]3)C(=O)c3ccccc32)cc1
- EC50 (Plasmodium falciparum [1]): 1560 nM
- CC50 [2]: 12800 nM
- EC50 (Plasmodium falciparum [3]): 901 nM

SMILES: N#Cc1c(N)n(CCc2ccc(Cl)cc2Cl)c2nc3ccccc3nc12
- EC50 (Plasmodium falciparum [1]): 828 nM
- CC50 [2]: 33400 nM
- EC50 (Plasmodium falciparum [3]): 485 nM

SMILES: CC(C)CC(N)C(=O)N1CCn2c(nc(-c3ccccc3)c2Nc2ccc3c(c2)OCO3)C1 (stereo not given)
- EC50 (Plasmodium falciparum [1]): 119 nM
- CC50 [2]: > 79500 nM
- EC50 (Plasmodium falciparum [3]): 122 nM

SMILES: CCOC(=O)C1=C(C)N/C(=C\c2cc(C)n(-c3ccc(C)cc3)c2C)C1=O
- EC50 (Plasmodium falciparum [1]): 1840 nM
- CC50 [2]: > 10000 nM
- EC50 (Plasmodium falciparum [3]): 988 nM

SMILES: CCOc1ccc(CCNC(=O)Nc2ccc(F)cc2)cc1OCC
- EC50 (Plasmodium falciparum [1]): 751 nM
- CC50 [2]: > 74700 nM
- EC50 (Plasmodium falciparum [3]): 492 nM

SMILES: Cc1cccc(CCNc2cc(C)nc3nc(C)nn23)c1
- EC50 (Plasmodium falciparum [1]): 2420 nM
- CC50 [2]: > 100000 nM
- EC50 (Plasmodium falciparum [3]): 2290 nM

SMILES: CCC(C)NC(=O)c1nn(-c2ccc(OC)cc2)c(=O)c2ccccc12 (stereo not given)
- EC50 (Plasmodium falciparum [1]): 798 nM
- CC50 [2]: > 100000 nM
- EC50 (Plasmodium falciparum [3]): 353 nM

SMILES: CCCCN1C(=O)N(c2ccccc2C)C(C)(O)CC1(C)C (stereo not given)
- EC50 (Plasmodium falciparum [1]): > 1520 nM
- CC50 [2]: > 10000 nM
- EC50 (Plasmodium falciparum [3]): > 261 nM

SMILES: CCCCCCN(C(=O)c1ccc(CCCCC)cc1)C(CC)c1nc2ccccc2c(=O)n1-c1ccccc1OC (stereo not given)
- EC50 (Plasmodium falciparum [1]): 1030 nM
- CC50 [2]: > 10000 nM
- EC50 (Plasmodium falciparum [3]): 699 nM

SMILES: C=CCN1C(=O)/C(=C\c2ccccc2)C(C(=O)OC)=C1C
- EC50 (Plasmodium falciparum [1]): 589 nM
- CC50 [2]: > 10000 nM
- EC50 (Plasmodium falciparum [3]): 262 nM

SMILES: NN1C(=O)NC(=O)C1Nc1cccc([N+](=O)[O-])c1 (stereo not given)
- EC50 (Plasmodium falciparum [1]): 976 nM
- CC50 [2]: > 12700 nM
- EC50 (Plasmodium falciparum [3]): 139 nM

SMILES: CCC(c1nc2ccccc2c(=O)n1-c1ccccc1OC)N(CCc1ccccc1)C(=O)c1ccc(F)cc1 (stereo not given)
- EC50 (Plasmodium falciparum [1]): 1020 nM
- CC50 [2]: > 7250 nM
- EC50 (Plasmodium falciparum [3]): 180 nM

SMILES: CCN(CC)S(=O)(=O)c1ccc2[nH]cc(C(=O)NCCCN3CCN(c4ccc(OC)cc4)CC3)c(=O)c2c1
- EC50 (Plasmodium falciparum [1]): 2340 nM
- CC50 [2]: 51600 nM
- EC50 (Plasmodium falciparum [3]): 420 nM

SMILES: CCOC(=O)COC1=C(CCCCC2CCCCC2)C(=O)c2ccccc2C1=O
- EC50 (Plasmodium falciparum [1]): 58.1 nM
- CC50 [2]: 31000 nM
- EC50 (Plasmodium falciparum [3]): 1220 nM

SMILES: C[n+]1cccc(C=C2c3ccccc3-c3ncccc32)c1
- EC50 (Plasmodium falciparum [1]): 173 nM
- CC50 [2]: > 100000 nM
- EC50 (Plasmodium falciparum [3]): 678 nM

SMILES: COc1cccc(-c2ccc(O)c(CNC3CCCCCCC3)c2)n1
- EC50 (Plasmodium falciparum [1]): 71.9 nM
- CC50 [2]: 23100 nM
- EC50 (Plasmodium falciparum [3]): 20.3 nM

SMILES: COc1cccc2c1C(=O)c1c(O)c3c(c(O)c1C2=O)CC(O)(C(=O)CO)CC3OC1CC(N)C(O)C(C)O1 (stereo not given)
- EC50 (Plasmodium falciparum [1]): 169 nM
- CC50 [2]: 5250 nM
- EC50 (Plasmodium falciparum [3]): 180 nM

SMILES: Cc1ccc(CN2CCc3nc(N4CCCCC4)sc3C2)s1
- EC50 (Plasmodium falciparum [1]): 14.1 nM
- CC50 [2]: > 10000 nM
- EC50 (Plasmodium falciparum [3]): 10.5 nM

SMILES: Cc1nc2c(C)c(-c3ccccc3)nn2c(O)c1C
- EC50 (Plasmodium falciparum [1]): 1020 nM
- CC50 [2]: > 100000 nM
- EC50 (Plasmodium falciparum [3]): 2080 nM

SMILES: CCOC(=O)C1=C(c2ccccc2)N=c2sc(=Cc3cc(C)n(-c4ccc(F)cc4)c3C)c(=O)n2C1c1cccc(OC)c1OC (stereo not given)
- EC50 (Plasmodium falciparum [1]): 2320 nM
- CC50 [2]: > 100000 nM
- EC50 (Plasmodium falciparum [3]): 2280 nM
